Assay [1] can be described thus: Induction of adiponectin secretion in human BMMSC cells in presence of IDX induction medium by ELISA assay. In kind it is functional, cell-based. As to conditions: Mesenchymal stem cells.
Assay [2] deals with Mesenchymal stem cells. The assay is described as follows: Induction of adiponectin secretion in human BMMSC cells assessed as increase in number of lipid droplets at 10 uM in presence of IDX induction medium by Oil Red O staining based inverted microscopic analysis. The assay is classed as functional, cell-based.
Assay [3] concerns Mesenchymal stem cells. Nature of the assay: Upregulation of ADIPOQ mRNA expression in human BMMSC cells at 10 uM in presence of IDX induction medium by qRT-PCR assay. In kind it is functional, cell-based.
Assay [4] is described as follows: Induction of adiponectin secretion in human BMMSC cells assessed as fold increase in adiponectin level at 10 uM in presence of IDX induction medium by ELISA assay. The assay is classed as functional, Mesenchymal stem cells.
For assay [5], the system named is Mesenchymal stem cells. Nature of the assay: Induction of adiponectin secretion in human BMMSC cells assessed as increase in size of lipid droplets at 10 uM in presence of IDX induction medium by Oil Red O staining based inverted microscopic analysis. The assay is classed as functional, cell-based.
The target of assay [6] is T1, Peroxisome proliferator-activated receptor gamma (Homo sapiens, UniProt P37231).
T1 sequence (P37231 whole entry): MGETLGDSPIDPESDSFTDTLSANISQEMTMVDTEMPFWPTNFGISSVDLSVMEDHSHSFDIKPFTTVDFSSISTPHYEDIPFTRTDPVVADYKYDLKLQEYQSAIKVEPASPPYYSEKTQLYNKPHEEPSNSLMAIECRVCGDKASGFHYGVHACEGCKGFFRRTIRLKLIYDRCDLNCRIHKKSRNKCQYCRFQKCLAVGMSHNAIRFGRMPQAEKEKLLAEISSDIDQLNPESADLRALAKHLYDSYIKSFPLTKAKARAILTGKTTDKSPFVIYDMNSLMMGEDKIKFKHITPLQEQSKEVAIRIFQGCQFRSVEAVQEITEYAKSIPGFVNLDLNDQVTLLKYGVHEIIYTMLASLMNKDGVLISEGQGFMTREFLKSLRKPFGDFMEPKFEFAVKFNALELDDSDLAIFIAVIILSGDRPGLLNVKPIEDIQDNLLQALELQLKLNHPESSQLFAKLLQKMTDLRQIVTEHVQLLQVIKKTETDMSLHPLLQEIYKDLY
Nature of the assay: Agonist activity at PPARgamma LBD (unknown origin) assessed as increase in recruitment of coactivator RAP250 to PPARgamma LBD by TR-FRET-based nuclear receptor coactivator assay.

The target of assay [7] is T2, Peroxisome proliferator-activated receptor delta (Homo sapiens) (UniProt Q03181).
T2 sequence (whole entry): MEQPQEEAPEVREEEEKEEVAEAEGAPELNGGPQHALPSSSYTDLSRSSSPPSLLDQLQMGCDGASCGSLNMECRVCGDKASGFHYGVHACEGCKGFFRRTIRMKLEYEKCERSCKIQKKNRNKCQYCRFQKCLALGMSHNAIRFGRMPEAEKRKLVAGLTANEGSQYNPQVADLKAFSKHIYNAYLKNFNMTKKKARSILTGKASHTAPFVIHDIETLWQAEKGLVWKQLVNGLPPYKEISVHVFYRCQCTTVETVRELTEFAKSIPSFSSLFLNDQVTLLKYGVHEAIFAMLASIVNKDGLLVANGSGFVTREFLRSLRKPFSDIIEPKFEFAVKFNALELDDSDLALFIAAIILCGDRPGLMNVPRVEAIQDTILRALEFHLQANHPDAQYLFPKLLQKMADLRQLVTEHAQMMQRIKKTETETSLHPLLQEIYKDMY
Nature of the assay: Binding affinity to PPARdelta (unknown origin) upto 10 uM by TR-FRET-based competitive binding assay.

In assay [8] the test system is Mesenchymal stem cells. Nature of the assay: Upregulation of PPARgamma mRNA expression in human BMMSC cells at 10 uM in presence of IDX induction medium by qRT-PCR assay. In kind it is functional, cell-based.
Assay [9] deals with T3, Peroxisome proliferator-activated receptor alpha (Homo sapiens) (UniProt Q07869).
T3 sequence (whole entry): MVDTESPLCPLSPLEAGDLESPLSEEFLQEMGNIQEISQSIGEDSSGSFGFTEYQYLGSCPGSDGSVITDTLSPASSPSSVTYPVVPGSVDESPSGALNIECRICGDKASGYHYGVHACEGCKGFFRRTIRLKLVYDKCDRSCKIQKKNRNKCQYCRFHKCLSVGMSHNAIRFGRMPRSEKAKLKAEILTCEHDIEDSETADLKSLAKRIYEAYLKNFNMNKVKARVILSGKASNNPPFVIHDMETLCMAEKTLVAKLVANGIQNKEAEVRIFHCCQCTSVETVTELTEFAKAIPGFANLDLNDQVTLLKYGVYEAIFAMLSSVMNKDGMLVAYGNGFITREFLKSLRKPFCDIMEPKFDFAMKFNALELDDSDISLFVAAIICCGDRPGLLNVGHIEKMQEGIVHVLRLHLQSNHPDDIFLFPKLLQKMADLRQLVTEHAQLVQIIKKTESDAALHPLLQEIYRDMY
The assay is described as follows: Binding affinity to PPARalpha (unknown origin) upto 10 uM by TR-FRET-based competitive binding assay.

For assay [10], the system named is Mesenchymal stem cells. The assay is described as follows: Potency index, ratio of EC50 for chrysin to EC50 for test compound for induction of adiponectin secretion in human BMMSC cells. The assay is classed as functional.
Assay [11] addresses T1, Peroxisome proliferator-activated receptor gamma. Nature of the assay: Binding affinity to PPARgamma (unknown origin) by TR-FRET-based competitive binding assay.
Assay [12] concerns Mesenchymal stem cells. Nature of the assay: Upregulation of FABP4 mRNA expression in human BMMSC cells at 10 uM in presence of IDX induction medium by qRT-PCR assay. The assay is classed as functional, cell-based.
Assay [13] concerns Mesenchymal stem cells. Nature of the assay: Induction of adiponectin secretion in human BMMSC cells at 10 uM in presence of IDX induction medium by ELISA assay. In kind it is functional, cell-based.
The target in assay [14] is T1, Peroxisome proliferator-activated receptor gamma. Nature of the assay: Partial agonist activity at PPARgamma (unknown origin) by TR-FRET-based competitive binding assay.

The source of these data is ChEMBL document CHEMBL5252661 (ACS Med Chem Lett, 2023).

pEC50, pKi: −log10 of the molar value. Active and inactive are the calls of the source. The rule behind the calls is not given here.

Consider `CCc1ccc(CCOc2ccc(CC3SC(=O)NC3=O)cc2)nc1` (centres undefined) [PIOGLITAZONE], for which, in [1], the pEC50 was 6.30.

Consider `CC(C)=CCOc1cc(OCc2ccccc2)c2c(=O)cc(-c3ccccc3)oc2c1`, for which the result in the assay on Mesenchymal stem cells [2], in the assay with Mesenchymal stem cells [3], in the assay on Mesenchymal stem cells [5], with Mesenchymal stem cells [8], in the assay on Mesenchymal stem cells [12] and with Mesenchymal stem cells [13] was Active. In addition, in assay [4], the “fold change (FC)” value is 3.8. The values for the negative-log EC50 (pEC50) in assay [1] and in [6] were 5.07 and 4.71, respectively. The result in [7] and in assay [9] was inactive. The “Ratio EC50” value with Mesenchymal stem cells [10] stood at 9. This molecule also gave a negative-log Ki (pKi) in assay [11] of 6.26.

As to `O=c1cc(-c2ccccc2)oc2cc(OCc3ccccc3)cc(O)c12`, the outcome in assay [7] and in assay [9] was inactive. For the same molecule, the result in the assay on Mesenchymal stem cells [13] was Active.

For the molecule `O=c1cc(-c2ccccc2)oc2cc(O)cc(OCc3ccc(Cl)cc3)c12`, the result in assay [7] and in assay [9] was inactive. Further, in the assay with Mesenchymal stem cells [13], the outcome was Active.

For the molecule `O=c1cc(-c2ccccc2)oc2cc(O)cc(O)c12` [CHRYSIN], the outcome in the assay with Mesenchymal stem cells [2], in the assay on Mesenchymal stem cells [5] and in the assay on Mesenchymal stem cells [13] was Active. The “fold change (FC)” value in assay [4] was determined as 2.3. For the same molecule, the pEC50 in assay [1] is 4.11. Besides, the outcome in [7] and in [9] was inactive.

As to `CCCc1nc2c(C)cc(-c3nc4ccccc4n3C)cc2n1Cc1ccc(-c2ccccc2C(=O)O)cc1`, the negative-log EC50 (pEC50) in assay [1] was 5.33. Further, the pKi in assay [14] is 5.97.

For the molecule `C=CCOc1cc(O)cc2oc(-c3ccccc3)cc(=O)c12`, the result in assay [7] and in assay [9] was inactive. Also, the result with Mesenchymal stem cells [13] was Active.

As for `CC(C)=CCOc1cc(OCC=C(C)C)c2c(=O)cc(-c3ccccc3)oc2c1`, the result in the assay with Mesenchymal stem cells [2], in the assay on Mesenchymal stem cells [3], with Mesenchymal stem cells [5], in the assay on Mesenchymal stem cells [8], in the assay on Mesenchymal stem cells [12] and with Mesenchymal stem cells [13] was Active. The “fold change (FC)” value in assay [4] was 4.8. The negative-log EC50 (pEC50) in assay [1] is 5.40. Moreover, the outcome in assay [7] and in [9] was inactive. The “Ratio EC50” value in the assay on Mesenchymal stem cells [10] came to 9. In [11], this molecule had a negative logarithm of the Ki (pKi) of 6.43.

Consider `CC(C)=CCOc1cc(OCc2ccccc2)cc2oc(-c3ccccc3)cc(=O)c12`, for which the “fold change (FC)” value in [4] is 3.3. The outcome in assay [7] and in [9] was inactive. Also, the result in the assay on Mesenchymal stem cells [13] was Active.

In the case of `COc1cc(OCc2ccccc2)cc2oc(-c3ccccc3)cc(=O)c12`, the result in [7] and in assay [9] was inactive.

On to `O=c1cc(-c2ccccc2)oc2cc(OCc3ccccc3)cc(OCc3ccccc3)c12`, for which the result in assay [7] and in [9] was inactive. For the same molecule, the outcome in the assay with Mesenchymal stem cells [13] was Active.

`O=c1cc(-c2ccccc2)oc2cc(O)cc(OCc3ccccc3)c12`: the outcome in [7] and in [9] was inactive. In the assay with Mesenchymal stem cells [13], the outcome was Active.

Regarding `O=c1cc(-c2ccccc2)oc2cc(O)cc(OCc3ccc(F)cc3)c12`, the outcome in assay [7] and in [9] was inactive. In the assay on Mesenchymal stem cells [13], the result was Active.
